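Tested at 5 concentrations; 48 h exposure; 96-well plates; endpoints linearly interpolated, else capped at highest concentration. Abbreviation: GI50, concentration required for 50% inhibition of growth.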 Active and inactive are the calls of the source. Cut-off read from the data, not from the text of the source: active = GI50 up to about 1.1 µM and inactive = higher.
Key:
Assay in all cases: NCI tumour cell line growth inhibition, 48 h
SR = test system: SR
MDA-MB-231 = test system: MDA-MB-231
A549 = test system: A549
786-0 = test system: 786-0
HL-60 = test system: HL-60
SW-620 = test system: SW-620
IGROV-1 = test system: IGROV-1
SF-539 = test system: SF-539
NCI-H460 = test system: NCI-H460
NCI-H23 = test system: NCI-H23
CAKI-1 = test system: CAKI-1
SK-MEL-2 = test system: SK-MEL-2
SF-268 = test system: SF-268
CCRF-CEM = test system: CCRF-CEM
SNB-75 = test system: SNB-75
LOX IMVI = test system: LOX IMVI
OVCAR-5 = test system: OVCAR-5
SK-MEL-28 = test system: SK-MEL-28
OVCAR-4 = test system: OVCAR-4
HCC 2998 = test system: HCC 2998

SMILES	GI50 (SR)	GI50 (MDA-MB-231)	GI50 (A549)	GI50 (786-0)	GI50 (HL-60)	GI50 (SW-620)	GI50 (IGROV-1)	GI50 (SF-539)	GI50 (NCI-H460)	GI50 (NCI-H23)	GI50 (CAKI-1)	GI50 (SK-MEL-2)	GI50 (SF-268)	GI50 (CCRF-CEM)	GI50 (SNB-75)	GI50 (LOX IMVI)	GI50 (OVCAR-5)	GI50 (SK-MEL-28)	GI50 (OVCAR-4)	GI50 (HCC 2998)
CC1(C)CC(=O)c2c(nc3ccc4ccccc4c3c2-c2ccc(NC(=O)CCCC(=O)Nc3ccc(-c4c5c(nc6ccc7ccccc7c46)CC(C)(C)CC5=O)cc3)cc2)C1	> 100 µM (inactive)	> 100 µM (inactive)	> 100 µM (inactive)	> 100 µM (inactive)	5.94 µM (inactive)	> 100 µM (inactive)	> 100 µM (inactive)	> 100 µM (inactive)	> 100 µM (inactive)	> 100 µM (inactive)	> 100 µM (inactive)	> 100 µM (inactive)	> 100 µM (inactive)	> 100 µM (inactive)	41.6 µM (inactive)	> 100 µM (inactive)	> 100 µM (inactive)	> 100 µM (inactive)	–	–
Nc1nc(N)c2ncn(Cc3ccccc3CO)c2n1	> 100 µM (inactive)	> 100 µM (inactive)	> 100 µM (inactive)	> 100 µM (inactive)	> 100 µM (inactive)	> 100 µM (inactive)	> 100 µM (inactive)	> 100 µM (inactive)	> 100 µM (inactive)	> 100 µM (inactive)	> 100 µM (inactive)	> 100 µM (inactive)	> 100 µM (inactive)	29.7 µM (inactive)	> 100 µM (inactive)	> 100 µM (inactive)	> 100 µM (inactive)	> 100 µM (inactive)	> 100 µM (inactive)	–
CC(=O)Nc1ccccc1S(=O)(=O)c1c(-c2c(C)c(Cl)c(C)c(Cl)c2C)noc1C	16.1 µM (inactive)	23.7 µM (inactive)	60.1 µM (inactive)	18.4 µM (inactive)	–	> 100 µM (inactive)	56.6 µM (inactive)	–	26.5 µM (inactive)	67.6 µM (inactive)	28.9 µM (inactive)	> 100 µM (inactive)	75.2 µM (inactive)	27.8 µM (inactive)	12.4 µM (inactive)	–	> 100 µM (inactive)	> 100 µM (inactive)	14.7 µM (inactive)	90.4 µM (inactive)
COc1ccc2c(c1)c1c(n2CCN2CCOCC2)-c2ccccc2CC1	18.2 µM (inactive)	29.4 µM (inactive)	30.8 µM (inactive)	37.4 µM (inactive)	–	32 µM (inactive)	37.2 µM (inactive)	23.1 µM (inactive)	31.9 µM (inactive)	> 100 µM (inactive)	> 100 µM (inactive)	25.4 µM (inactive)	42.3 µM (inactive)	27.2 µM (inactive)	39.7 µM (inactive)	–	71.4 µM (inactive)	42.4 µM (inactive)	48.4 µM (inactive)	20.7 µM (inactive)
COC(=O)Cn1c(=O)oc2nc(-c3ccccc3)cc(C(F)(F)F)c21	62.2 µM (inactive)	> 100 µM (inactive)	82 µM (inactive)	> 100 µM (inactive)	–	73.1 µM (inactive)	66.1 µM (inactive)	> 100 µM (inactive)	> 100 µM (inactive)	> 100 µM (inactive)	> 100 µM (inactive)	> 100 µM (inactive)	> 100 µM (inactive)	–	> 100 µM (inactive)	–	> 100 µM (inactive)	24.4 µM (inactive)	86.3 µM (inactive)	> 100 µM (inactive)
CC(C)C(O)(C(=O)OCN1C(=O)C2C3C=CC(C2C1=O)C1C2C(=O)N(COC(=O)C(O)(C(C)C)C(C)O)C(=O)C2C31)C(C)O (stereo not given)	> 100 µM (inactive)	> 100 µM (inactive)	> 100 µM (inactive)	> 100 µM (inactive)	> 100 µM (inactive)	> 100 µM (inactive)	> 100 µM (inactive)	> 100 µM (inactive)	> 100 µM (inactive)	> 100 µM (inactive)	> 100 µM (inactive)	> 100 µM (inactive)	> 100 µM (inactive)	> 100 µM (inactive)	0.0275 µM (active)	–	> 100 µM (inactive)	> 100 µM (inactive)	> 100 µM (inactive)	> 100 µM (inactive)
COc1cc(OC)c(/C=N/N=C(\N)NO)c(OC)c1	63.5 µM (inactive)	> 100 µM (inactive)	60.8 µM (inactive)	> 100 µM (inactive)	–	> 100 µM (inactive)	90.6 µM (inactive)	> 100 µM (inactive)	91.4 µM (inactive)	> 100 µM (inactive)	> 100 µM (inactive)	> 100 µM (inactive)	> 100 µM (inactive)	> 100 µM (inactive)	0.0255 µM (active)	> 100 µM (inactive)	> 100 µM (inactive)	> 100 µM (inactive)	> 100 µM (inactive)	> 100 µM (inactive)
CCOC(=O)/C=C/CC(C)(C)COC(C)=O	> 10 µM (inactive)	> 10 µM (inactive)	> 10 µM (inactive)	–	> 10 µM (inactive)	> 10 µM (inactive)	–	–	> 10 µM (inactive)	> 10 µM (inactive)	–	> 10 µM (inactive)	> 10 µM (inactive)	> 10 µM (inactive)	5.11 µM (inactive)	6.98 µM (inactive)	9.08 µM (inactive)	> 10 µM (inactive)	> 10 µM (inactive)	> 10 µM (inactive)
CC1SC(=O)SC1C (stereo not given)	> 100 µM (inactive)	> 100 µM (inactive)	> 100 µM (inactive)	> 100 µM (inactive)	> 100 µM (inactive)	> 100 µM (inactive)	> 100 µM (inactive)	> 100 µM (inactive)	> 100 µM (inactive)	–	–	–	> 100 µM (inactive)	> 100 µM (inactive)	> 100 µM (inactive)	–	> 100 µM (inactive)	> 100 µM (inactive)	> 100 µM (inactive)	> 100 µM (inactive)
COc1ccc(OC)c2c(C(C)=O)cccc12	> 100 µM (inactive)	> 100 µM (inactive)	> 100 µM (inactive)	> 100 µM (inactive)	85.1 µM (inactive)	> 100 µM (inactive)	> 100 µM (inactive)	> 100 µM (inactive)	> 100 µM (inactive)	> 100 µM (inactive)	–	–	> 100 µM (inactive)	> 100 µM (inactive)	–	–	> 100 µM (inactive)	> 100 µM (inactive)	–	> 100 µM (inactive)
O=C(CNc1cccc(Cl)c1)Nn1c(-c2ccccc2)nc2ccccc2c1=O	4.6 µM (inactive)	3.37 µM (inactive)	19.7 µM (inactive)	2.77 µM (inactive)	2.95 µM (inactive)	2.47 µM (inactive)	4.35 µM (inactive)	3.69 µM (inactive)	10.5 µM (inactive)	2.4 µM (inactive)	–	–	4.71 µM (inactive)	1.58 µM (inactive)	3.61 µM (inactive)	1.21 µM (inactive)	18.6 µM (inactive)	8.02 µM (inactive)	3.58 µM (inactive)	10.4 µM (inactive)
COc1cc2c(c3nc4ccccc4nc13)-c1ccc(SC)c(=O)cc1[C@@H](NC(C)=O)CC2	0.0158 µM (active)	0.0966 µM (active)	0.377 µM (active)	0.115 µM (active)	–	0.0752 µM (active)	0.0267 µM (active)	0.0248 µM (active)	0.0893 µM (active)	0.0247 µM (active)	1.83 µM (inactive)	–	0.144 µM (active)	0.0601 µM (active)	0.0313 µM (active)	0.0542 µM (active)	–	> 56.4 µM (inactive)	0.0562 µM (active)	0.0935 µM (active)
CCN(CC)CCCNc1n[n+]([O-])c2ccccc2[n+]1[O-]	13.7 µM (inactive)	6.01 µM (inactive)	12.6 µM (inactive)	8.69 µM (inactive)	3.57 µM (inactive)	15.1 µM (inactive)	5.73 µM (inactive)	20.7 µM (inactive)	3.99 µM (inactive)	11.6 µM (inactive)	31.8 µM (inactive)	4.74 µM (inactive)	26.4 µM (inactive)	14.2 µM (inactive)	23.1 µM (inactive)	–	20.5 µM (inactive)	63.1 µM (inactive)	23.7 µM (inactive)	3.46 µM (inactive)
Oc1ccc(/C=N/N=c2\[nH][nH]/c(=N\N=C\c3ccc(O)cc3O)c3ccccc23)c(O)c1	0.136 µM (active)	0.401 µM (active)	0.315 µM (active)	0.378 µM (active)	0.271 µM (active)	0.385 µM (active)	0.327 µM (active)	0.294 µM (active)	0.355 µM (active)	0.326 µM (active)	0.268 µM (active)	0.288 µM (active)	0.126 µM (active)	0.345 µM (active)	–	0.313 µM (active)	0.422 µM (active)	–	–	–
Cc1cc(S(=O)(=O)Nc2nc3ccccc3nc2-c2cccc([N+](=O)[O-])c2)c(S)cc1Cl	20.8 µM (inactive)	58.5 µM (inactive)	16.1 µM (inactive)	23.8 µM (inactive)	20.4 µM (inactive)	–	13.2 µM (inactive)	22.8 µM (inactive)	11 µM (inactive)	17.1 µM (inactive)	18.3 µM (inactive)	21.9 µM (inactive)	25.9 µM (inactive)	23.5 µM (inactive)	–	–	36.6 µM (inactive)	15.8 µM (inactive)	27.5 µM (inactive)	18.8 µM (inactive)
CC(=O)OCC1(CNc2nc(N)ncc2C#N)CC(CCc2ccccc2)C1 (stereo not given)	4.8 µM (inactive)	10.4 µM (inactive)	15.5 µM (inactive)	40.4 µM (inactive)	3.66 µM (inactive)	> 100 µM (inactive)	21.4 µM (inactive)	> 100 µM (inactive)	26.8 µM (inactive)	2.49 µM (inactive)	4 µM (inactive)	> 100 µM (inactive)	> 100 µM (inactive)	57 µM (inactive)	27.4 µM (inactive)	4.58 µM (inactive)	> 100 µM (inactive)	> 100 µM (inactive)	> 100 µM (inactive)	–
